melting point: 87 to 91 °C
SMILES: CCN(C(C)=O)c1cn(-c2cccnc2)nc1Cl

Reference: patent US10100033B2 (dated 2018)
